Values quoted from earlier work, collected in patent US12071516B2, “Polymeric stabilizing formulations” (Nano Precision Medical, Inc., priority 2014, dated 2024).

water solubility: limited water solubility
SMILES: OCCN1CCN(CCCN2c3ccccc3Sc3ccc(C(F)(F)F)cc32)CC1 [Fluphenazine]
